Measured values from patent publication US20130267474A1, “NOVEL PHYTOCHEMICALS FROM EXTRACTS OF MAPLE SYRUPS AND MAPLE TREES AND USES THEREOF” (UNIVERSITY OF RHODE ISLAND, priority 2010, published 2013).
Read-outs that look alike come from different tables or passages of the source.

How the values were obtained:
[1] = test system: CCD-18Co (normal human colon fibroblasts); test: MTS cytotoxicity / antiproliferative assay; type: cell-based; details: Homo sapiens, CCD-18Co
Experimental: (§1) Cell lines included three human colon cancer cells: HT-29 (human colon adenocarcinoma), HCT116 (human colon carcinoma) and Caco-2 (human epithelial colorectal adenocarcinoma). In addition, normal human colon cells are included: CCD-^18Co (human colon fibroblasts). All cell lines are obtained from the American Type Culture Collection (ATCC, Rockville, Md., USA) and maintained at the University of Rhode Island.
(§2) The assay is carried out to measure the IC50 values for samples. […] Test samples and a positive control, etoposide 4 mg/mL (Sigma), are solubilized in DMSO by sonication. […] Control wells are also included on all plates. […] Each point on the curve is […]. Data (see tables 6 to 9) are expressed as mean±SE for three replications on each cell line.

[2] = test system: Caco-2 (human epithelial colorectal adenocarcinoma); test: MTS cytotoxicity / antiproliferative assay; type: cell-based; details: Homo sapiens
Experimental: as §1, §2

[3] = test system: HCT-116 (human colon carcinoma); test: MTS cytotoxicity / antiproliferative assay; type: cell-based; details: Homo sapiens
Experimental: as §1, §2

[4] = test system: HT-29 (human colon adenocarcinoma); test: MTS cytotoxicity / antiproliferative assay; type: cell-based; details: Homo sapiens
Experimental: as §1, §2

CCD-18Co cells = test: Flow cytometry analysis of cell cycle; type: cell-based, human; details: 48 and 72 h
Experimental: (§3) (2×10^5) are collected after the corresponding experimental periods, fixed in ice-cold ethanol:PBS (70:30, v/v) for 30 min at 4° C., further resuspended in PBS with 100 μg ml^−1 RNAse and 40 μg ml^−1 propidium iodide, and then incubated at 37° C. for 30 min. The DNA content (10,000 cells) is analyzed using a FACS Calibur instrument equipped with FACStation running FACS Calibur software (BD Biosciences, San Diego, Calif., USA). The analyses of cell cycle distribution are performed in triplicate for each treatment (tested at 50 μg/mL concentrations). The coefficient of variation, according to the ModFit LT Version 2 acquisition software package (Verity Software House, Topsham, Me., USA), is always less than 5%.
as §3, with “Cells (2×10^5)” for “(2×10^5)”, “μg/mL” for “μg ml^−1”, “and” for “and then”, “min.” for “min. The”, “analysed” for “analyzed”, “treatment.” for “treatment (tested at 50 μg/mL concentrations).”

[5] = test system: colon cancer (HCT-116, Caco-2 and HT-29) cell lines; test: MTS antiproliferative assay, statements pooled over the colon cancer cell lines

COc1cc([C@@H]2c3cc4c(cc3[C@@H](O[C@@H]3O[C@@H]5CO[C@@H](C)O[C@H]5[C@H](O)[C@H]3O)[C@H]3COC(=O)[C@H]23)OCO4)cc(OC)c1O [Etoposide, reference compound]
IC50 ([1]; 48 h, read-out: CCD-18Co 48 h (IC50), 48 h): 48.7 µM | IC50 ([1]; 48 h, read-out: CCD-18Co 48 h(IC50), Table 6 maple compounds, 48 h, unit inferred): 45.1 µM | IC50 ([1]; 72 h, Table 6 maple compounds, 72 h, unit inferred, read-out: CCD-18Co 72 h(IC50)): 42.4 µM | IC50 ([1]; 72 h, read-out: CCD-18Co 72 h (IC50)): 43.9 µM | IC50 ([1]; CCD-18Co cells, read-out: IC50 of positive control, MTS): 40 to 45 µM | IC50 ([1]; positive control, footnote of Table 16, read-out: IC50 for the CCD-18Co cells): 30 to 40 µM | IC50 ([2]; Caco-2, 48 h, read-out: Caco-2 48 h (IC50), 48 h): 18.9 µM | IC50 ([2]; Caco-2, 48 h, read-out: Caco-2 48 h(IC50), Table 6 maple compounds, 48 h, unit inferred): 14.3 µM | IC50 ([2]; Caco-2, 72 h, 72 h, read-out: Caco-2 72 h (IC50)): 16.1 µM | IC50 ([2]; Caco-2, 72 h, Table 6 maple compounds, 72 h, unit inferred, read-out: Caco-2 72 h(IC50)): 12.3 µM | IC50 ([2]; Caco-2, 72 h, Table 7 maple extracts, 72 h, unit inferred, read-out: Caco-2 72 h(IC50)): 16.1 µM | IC50 ([3]; HCT-116, 48 h, read-out: HCT-116 48 h (IC50), 48 h): 26.9 µM | IC50 ([3]; HCT-116, 48 h, read-out: HCT-116 48 h(IC50), Table 6 maple compounds, 48 h, unit inferred): 28.5 µM | IC50 ([3]; HCT-116, 72 h, 72 h, read-out: HCT-116 72 h (IC50)): 14.4 µM | IC50 ([3]; HCT-116, 72 h, Table 6 maple compounds, 72 h, unit inferred, read-out: HCT-116 72 h(IC50)): 21.9 µM | IC50 ([3]; HCT-116, 72 h, Table 7 maple extracts, 72 h, unit inferred, read-out: HCT-116 72 h(IC50)): 14.4 µM | IC50 ([4]; HT-29, 48 h, read-out: HT-29 48 h (IC50), 48 h): 13.4 µM | IC50 ([4]; HT-29, 48 h, read-out: HT-29 48 h(IC50), Table 6 maple compounds, 48 h, unit inferred): 21.2 µM | IC50 ([4]; HT-29, 48 h, read-out: HT-29 48 h(IC50), Table 7 maple extracts, 48 h, unit inferred): 13.4 µM | IC50 ([4]; HT-29, 72 h, 72 h, read-out: HT-29 72 h (IC50)): 7.3 µM | IC50 ([4]; HT-29, 72 h, Table 6 maple compounds, 72 h, unit inferred, read-out: HT-29 72 h(IC50)): 12.9 µM | IC50 ([4]; HT-29, 72 h, Table 7 maple extracts, 72 h, unit inferred, read-out: HT-29 72 h(IC50)): 7.3 µM | changes in cell cycle compared with control cells (CCD-18Co cells): slight but significant changes in the S phase | IC50 ([5]; Homo sapiens, read-out: IC50 (HT29, HCT116 and Caco-2), positive control, footnote of Table 16): 10 to 20 µM | IC50 ([5]; Homo sapiens, read-out: IC50 of positive control, MTS, HT-29, HCT116 and Caco-2): 15 to 25 µM | IC50 ([5]; read-out: IC50 of positive control, MTS, HT-29, HCT116 and Caco-2): 10 to 20 µM
